Structures can show the parent of a compound that is named as a salt. Where two headings read alike, the source gives them in different places. Starred links: 1 amine or outer side, 2 acyl side, 3 side chain; linkers in the order of their positions; H or OH if unused. Positions of bridges follow the written chain, without caps; N, C: chain ends. Non-standard residues stand in square brackets, D forms with d. Residues, ends and D or L forms follow the SMILES beside them. *: point of attachment. DOTA = O=C(O)CN1CCN(CC(=O)O)CCN(CC(=O)*)CCN(CC(=O)O)CC1; Trp(5-OH) = N[C@@H](Cc1c[nH]c2ccc(O)cc12)C(=O)O; NMePhe(4-F) = CN[C@@H](Cc1ccc(F)cc1)C(=O)O; NMehPhe = CN[C@@H](CCc1ccccc1)C(=O)O; Adipoyl = O=C(CCCCC(=O)[*:2])[*:1]; NMeAoc(2) = CCCCCC[C@H](NC)C(=O)O; NMeE = CN[C@@H](CCC(=O)O)C(=O)O; Aad = N[C@@H](CCCC(=O)O)C(=O)O; Gly(cPr) = N[C@H](C(=O)O)C1CC1; Ahp(2) = CCCCC[C@H](N)C(=O)O; NMeK = CN[C@@H](CCCCN)C(=O)O; NMeDap = CN[C@@H](CN)C(=O)O; NMeS = CN[C@@H](CO)C(=O)O; Dap = NC[C@H](N)C(=O)O
Tests used:
Format in all cases: binding
[1] = target: T1, human HER2 (23-652) (Homo sapiens, UniProt P04626); experiment: Surface plasmon resonance (SPR) for assessment of peptide affinity, human HER2; design: towards human HER2 (23-652) and mouse HER2 (23-653); made in house
Outline: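 Binding kinetics fitted from sensorgrams with 280 s peptide association then 3000 s dissociation (30 uL/min), using HER2 (23-652) either directly immobilized (SA/CM5) or anti-Fc-captured; 3 M magnesium chloride used for regeneration.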

[2] = target: T2, mouse HER2 (23-653) (Mus musculus, UniProt P70424); experiment: Surface plasmon resonance (SPR) for assessment of peptide affinity, mouse HER2; design: mouse HER2 (23-653) using a Cy5 labeled peptide as a probe; made in house
Source text: Each protein was immobilized either onto a SA sensorchip (Cytiva, BR-1005-31) or CM5 sensorchip (Cytiva, BR-1005-30) to a density of 800-2000 RU.

[3] = target: T1, human HER2 (23-652); experiment: TR-FRET competition assay for peptide potency, human HER2; design: towards human HER2 (23-652) and mouse HER2 (23-653); made in house; host or cells: mammalian cells
[4] = target: T2, mouse HER2 (23-653); experiment: TR-FRET competition assay for peptide potency, mouse HER2; design: mouse HER2 (23-653) using a Cy5 labeled peptide as a probe; made in house; host or cells: mammalian cells
[5] = SPR, human HER2 extracellular domain, 25° C., 1:1 binding model, read-out: huHER2-SPR-ONC KD
[6] = SPR, mouse HER2 extracellular domain, 25° C., 1:1 binding model, read-out: moHER2-SPR-ONC KD
[7] = TR-FRET competition with Cy5 labeled peptide probe, 0.1 nM mouse HER2, 24 h incubation, read-out: moHER2 TR-FRET IC50
[8] = TR-FRET competition with Cy5 labeled peptide probe, 0.1 nM human HER2, 24 h incubation, read-out: huHER2 TR-FRET IC50

Row | Kd [1, 5] | Kd [2, 6] | IC50 ([3]; read-out: huHER2 TR-FRET IC50) | IC50 [4, 7] | IC50 [3, 8] | Compound | Kd [1] | Kd [2] | IC50 ([3]; huHER2 TR-FRET IC50, TR-FRET competition with Cy5 labeled peptide probe, 0.1 nM human HER2, 24 h incubation) | IC50 ([3]; huHER2 TR-FRET IC50, recalculated value achieved after further repetition, value in parentheses (**): recalculated after further repetition) | IC50 ([4]; moHER2 TR-FRET IC50, TR-FRET competition with Cy5 labeled peptide probe, 0.1 nM mouse HER2, 24 h incubation) | IC50 ([4]; moHER2 TR-FRET IC50, recalculated value achieved after further repetition, value in parentheses (**): recalculated after further repetition)
1 | < 0.0001 µM | < 0.0001 µM |  | 0.0002 µM | < 0.0001 µM | CC(=O)NCCCC[C@H]1C(=O)N[C@@H](Cc2c[nH]c3ccc(O)cc23)C(=O)N[C@@H](Cc2c[nH]c3ccccc23)C(=O)N[C@@H](C2CC2)C(=O)N(C)[C@H](C(=O)N(C)[C@@H](Cc2ccc(F)cc2)C(=O)N[C@@H](CCCCNC(=O)CN2CCN(CC(=O)O)CCN(CC(=O)O)CCN(CC(=O)O)CC2)C(N)=O)CNC(=O)CCC[C@H](NC(=O)CO)C(=O)N[C@@H](Cc2ccc(O)cc2)C(=O)N[C@@H](CO)C(=O)N(C)[C@@H](CCc2ccccc2)C(=O)N1C [Example C15] |  |  |  |  |  | 
2 | < 0.0001 µM | 0.0002 µM |  | 0.0003 µM | < 0.0001 µM | CC(=O)NCCCC[C@H]1C(=O)N[C@@H](Cc2c[nH]c3ccc(O)cc23)C(=O)N[C@@H](Cc2c[nH]c3ccccc23)C(=O)N[C@@H](C2CC2)C(=O)N(C)[C@H](C(=O)N(C)[C@@H](Cc2ccc(F)cc2)C(=O)N[C@@H](CCCCNC(=O)CN2CCN(CC(=O)O)CCN(CC(=O)O)CCN(CC(=O)O)CC2)C(N)=O)CNC(=O)CCCCC(=O)N[C@@H](Cc2ccc(O)cc2)C(=O)N[C@@H](CO)C(=O)N(C)[C@@H](CCc2ccccc2)C(=O)N1C [Example C14] (YS[NMehPhe][NMeK](Ac)[Trp(5-OH)]W[Gly(cPr)][NMeDap][NMePhe(4-F)]K(DOTA)-NH2; linker N-8 via Adipoyl) |  |  |  |  |  | 
3 | < 0.0001 µM | 0.0003 µM | < 0.0001 µM | 0.0002 µM |  | CC(=O)NCCCC[C@H]1C(=O)N[C@@H](Cc2c[nH]c3ccc(O)cc23)C(=O)N[C@@H](Cc2c[nH]c3ccccc23)C(=O)N[C@@H](C2CC2)C(=O)N(C)[C@H](C(=O)N(C)[C@@H](Cc2ccc(F)cc2)C(=O)N[C@@H](CCCCNC(=O)c2ccc(F)nc2)C(N)=O)CNC(=O)CCC[C@H](NC(C)=O)C(=O)N[C@@H](Cc2ccc(O)cc2)C(=O)N[C@@H](CO)C(=O)N(C)[C@@H](CCc2ccccc2)C(=O)N1C [Example F1] |  |  |  |  |  | 

More lines, now with the values behind:

Row | Compound | Kd [1, 5] | Kd [2, 6] | IC50 ([3]; read-out: huHER2 TR-FRET IC50) | IC50 [4, 7] | IC50 [3, 8] | Kd [1] | Kd [2] | IC50 ([3]; huHER2 TR-FRET IC50, TR-FRET competition with Cy5 labeled peptide probe, 0.1 nM human HER2, 24 h incubation) | IC50 ([3]; huHER2 TR-FRET IC50, recalculated value achieved after further repetition, value in parentheses (**): recalculated after further repetition) | IC50 ([4]; moHER2 TR-FRET IC50, TR-FRET competition with Cy5 labeled peptide probe, 0.1 nM mouse HER2, 24 h incubation) | IC50 ([4]; moHER2 TR-FRET IC50, recalculated value achieved after further repetition, value in parentheses (**): recalculated after further repetition)
4 | CCCCCC[C@@H](C(N)=O)N(C)C(=O)[C@@H]1CNC(=O)CCC[C@H](NC(C)=O)C(=O)N[C@@H](Cc2ccc(O)cc2)C(=O)N[C@@H](CO)C(=O)N(C)[C@@H](CCc2ccccc2)C(=O)N(C)[C@@H](CCCCNC(C)=O)C(=O)N[C@@H](Cc2c[nH]c3ccc(O)cc23)C(=O)N[C@@H](Cc2c[nH]c3ccccc23)C(=O)N[C@@H](C2CC2)C(=O)N1C [Example A13, (3S,6S,9S,12S,15S,18S,21S,24S,27S)-9-((1H-indol-3-yl)methyl)-27-acetamido-15-(4-acetamidobutyl)-N-((S)-1-amino-1-oxooctan-2-yl)-6-cyclopropyl-12-((5-hydroxy-1H-indol-3-yl)methyl)-24-(4-hydroxybenzyl)-21-(hydroxymethyl)-N,4,16,19-tetramethyl-5,8,11,14,17,20,23,26,31-nonaoxo-18-phenethyl-1,4,7,10,13,16,19,22,25-nonaazacyclohentriacontane-3-carboxamide] (Ac-[Aad]YS[NMehPhe][NMeK](Ac)[Trp(5-OH)]W[Gly(cPr)][NMeDap][NMeAoc(2)]-NH2; lactam 1-9) | 0.04 µM | 0.044 µM | 0.046 µM | 0.107 µM |  |  |  |  |  |  | 
5 | CC(=O)N[C@H]1CCCC(=O)NC[C@@H](C(=O)N(C)[C@@H](Cc2ccc(F)cc2)C(=O)N[C@@H](CCCCNC(=O)CN2CCN(CC(=O)O)CCN(CC(=O)O)CCN(CC(=O)O)CC2)C(N)=O)N(C)C(=O)[C@H]([C@H](C)O)NC(=O)[C@H](Cc2c[nH]c3ccccc23)NC(=O)[C@H](Cc2c[nH]c3ccc(O)cc23)NC(=O)[C@H](CCCCNC(=O)CO)N(C)C(=O)[C@H](CCc2ccccc2)N(C)C(=O)[C@H](CO)NC(=O)[C@H](Cc2ccc(O)cc2)NC1=O [Example B6] | 0.0005 µM | 0.0012 µM | 0.0003 µM | 0.0011 µM |  |  |  |  |  |  | 
6 | CC(=O)N[C@H]1CCCC(=O)NC[C@@H](C(=O)N(C)[C@@H](Cc2ccc(F)cc2)C(=O)N[C@@H](CCCCNC(=O)CN2CCN(CC(=O)O)CCN(CC(=O)O)CCN(CC(=O)O)CC2)C(N)=O)N(C)C(=O)[C@H](C2CC2)NC(=O)[C@H](Cc2c[nH]c3ccccc23)NC(=O)[C@H](Cc2c[nH]c3ccc(O)cc23)NC(=O)[C@H](CCCCNC(=O)CO)N(C)C(=O)[C@H](CCc2ccccc2)N(C)C(=O)[C@H](CO)NC(=O)[C@H](Cc2ccc(O)cc2)NC1=O [Example B5] | < 0.0001 µM | 0.0001 µM | < 0.0001 µM | 0.0002 µM |  |  |  |  |  |  | 
7 | CC(=O)N[C@H]1CCC(=O)NC[C@@H](C(=O)N(C)[C@@H](Cc2ccc(F)cc2)C(N)=O)NC(=O)[C@H](C2CC2)NC(=O)[C@H](Cc2c[nH]c3ccccc23)NC(=O)[C@H](Cc2c[nH]c3ccc(O)cc23)NC(=O)[C@H](CO)N(C)C(=O)[C@H](CCc2ccccc2)N(C)C(=O)[C@H](CO)NC(=O)[C@H](Cc2ccc(O)cc2)NC1=O [Example A12, (3S,6S,9S,12S,15S,18S,21S,24S,27S)-9-((1H-indol-3-yl)methyl)-27-acetamido-N-((S)-1-amino-3-(4-fluorophenyl)-1-oxopropan-2-yl)-6-cyclopropyl-12-((5-hydroxy-1H-indol-3-yl)methyl)-24-(4-hydroxybenzyl)-15,21-bis(hydroxymethyl)-N,16,19-trimethyl-5,8,11,14,17,20,23,26,30-nonaoxo-18-phenethyl-1,4,7,10,13,16,19,22,25-nonaazacyclotriacontane-3-carboxamide] | 1.34 µM | 0.864 µM | > 1 µM | > 1 µM |  |  |  |  |  |  | 
8 | CCCCC[C@@H]1NC(=O)[C@H](CCCCNC(C)=O)N(C)C(=O)[C@H](CCc2ccccc2)N(C)C(=O)[C@H](CO)NC(=O)[C@H](Cc2ccc(O)cc2)NC(=O)[C@@H](NC(C)=O)CCCC(=O)NC[C@@H](C(=O)N(C)[C@@H](Cc2ccc(F)cc2)C(N)=O)N(C)C(=O)[C@H](C2CC2)NC(=O)[C@H](Cc2c[nH]c3ccccc23)NC1=O [Example A11, (3S,6S,9S,12S,15S,18S,21S,24S,27S)-9-((1H-indol-3-yl)methyl)-27-acetamido-15-(4-acetamidobutyl)-N-((S)-1-amino-3-(4-fluorophenyl)-1-oxopropan-2-yl)-6-cyclopropyl-24-(4-hydroxybenzyl)-21-(hydroxymethyl)-N,4,16,19-tetramethyl-5,8,11,14,17,20,23,26,31-nonaoxo-12-pentyl-18-phenethyl-1,4,7,10,13,16,19,22,25-nonaazacyclohentriacontane-3-carboxamide] (Ac-[Aad]YS[NMehPhe][NMeK](Ac)[Ahp(2)]W[Gly(cPr)][NMeDap][NMePhe(4-F)]-NH2; lactam 1-9) | 0.445 µM | 0.786 µM | 0.966 µM | > 1 µM |  |  |  |  |  |  | 
9 | CN1C(=O)[C@H](CO)NC(=O)[C@H](Cc2ccc(O)cc2)NC(=O)[C@@H](N)CNC(=O)CC[C@@H](C(=O)N(C)[C@@H](Cc2ccc(F)cc2)C(N)=O)N(C)C(=O)[C@H](C2CC2)NC(=O)[C@H](Cc2c[nH]c3ccccc23)NC(=O)[C@H](Cc2c[nH]c3ccc(O)cc23)NC(=O)[C@H](CO)N(C)C(=O)[C@@H]1CCc1ccccc1 [Example A34, (3S,6S,9S,12S,15S,18S,21S,24S,30S)-6-((1H-indol-3-yl)methyl)-24-amino-N-((S)-1-amino-3-(4-fluorophenyl)-1-oxopropan-2-yl)-3-cyclopropyl-9-((5-hydroxy-1H-indol-3-yl)methyl)-21-(4-hydroxybenzyl)-12,18-bis(hydroxymethyl)-N,1,13,16-tetramethyl-2,5,8,11,14,17,20,23,27-nonaoxo-15-phenethyl-1,4,7,10,13,16,19,22,26-nonaazacyclotriacontane-30-carboxamide TFA salt] (H-[Dap]YS[NMehPhe][NMeS][Trp(5-OH)]W[Gly(cPr)][NMeE][NMePhe(4-F)]-NH2; lactam 1-9) |  |  |  |  |  | 0.068 µM | 0.064 µM | 0.158 µM | 0.118 µM | 0.296 µM | 0.175 µM
